Results on 26 compounds are retold here after US12492181B2, “Gem-disubstituted piperidine melanocortin subtype-2 receptor (MC2R) antagonists and uses thereof” (Crinetics Pharmaceuticals, Inc., priority 2019, dated 2025).

T1 sequence (Q01718 whole entry): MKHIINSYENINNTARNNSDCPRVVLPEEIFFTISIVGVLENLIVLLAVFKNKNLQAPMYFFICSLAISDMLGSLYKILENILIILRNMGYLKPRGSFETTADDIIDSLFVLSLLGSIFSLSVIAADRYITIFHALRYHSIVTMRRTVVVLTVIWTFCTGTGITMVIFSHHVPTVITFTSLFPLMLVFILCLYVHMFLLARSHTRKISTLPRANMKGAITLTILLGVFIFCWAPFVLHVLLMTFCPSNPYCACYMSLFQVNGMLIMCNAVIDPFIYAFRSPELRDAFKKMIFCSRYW
T1 sequence (Q8TCY5 whole entry partner): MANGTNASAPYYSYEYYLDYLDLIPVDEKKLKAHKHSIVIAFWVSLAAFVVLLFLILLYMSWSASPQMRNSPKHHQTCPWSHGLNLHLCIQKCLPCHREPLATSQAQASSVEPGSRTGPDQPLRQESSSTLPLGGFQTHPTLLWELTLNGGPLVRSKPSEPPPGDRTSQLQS

The test has as its target T1, hMC2 receptor (crude hMC2R membranes from CRE-bla-CHO-K1 cells stably expressing hMC2 receptor and hMRAP accessory protein) (Homo sapiens, UniProt Q01718).
T1 construct: crude membrane fractions
The test is described as follows: hMC2 membrane binding assay ([125I]ACTH (1-39) Tyr23, SPA). To be noted: displacement of 0.2 nM [125I]ACTH (1-39) Tyr23 from hMC2R membranes, 1.5 hours at room temperature; read-out: MC2R binding potency. In outline:
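Ki values come from non-linear regression of SPA scintillation counts, with compounds displacing [125I]ACTH(1-39) Tyr23. Membranes come from CRE-bla-CHO-K1 cells stably expressing hMC2 receptor together with hMRAP. They are preincubated with WGA-coated PVT SPA beads in 50 mM HEPES pH 7.4 with 0.20% BSA, Mg2+, Ca2+ and protease inhibitors.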
For the compound `CCOc1ncccc1-c1ncc(C2(C(=O)N[C@@H](C)CNC)CCN(c3ccc(C(F)(F)F)cc3F)CC2)cc1F` [Compound 1-315, 4-{2′-ethoxy-3-fluoro-[2,3′-bipyridin]-5-yl}-1-[2-fluoro-4-(trifluoromethyl)phenyl]-N-[(2S)-1-(methylamino)propan-2-yl]piperidine-4-carboxamide], the Ki is less than 10 nM. As for `COc1ccccc1-c1ccc(C2(C(=O)N[C@@H]3CNC[C@H]3F)CCN(c3ccc(C(F)(F)F)cc3C#N)CC2)cn1` [Compound 1-238, 1-[2-cyano-4-(trifluoromethyl)phenyl]-N-[(3R,4R)-4-fluoropyrrolidin-3-yl]-4-[6-(2-methoxyphenyl)pyridin-3-yl]piperidine-4-carboxamide], the figure is less than 10 nM; as for `CCOc1ncccc1-c1ccc(C2(C(=O)NC3CN(C)CC3O)CCN(c3ccc(C(F)(F)F)cc3C#N)CC2)cn1` (single isomer, unassigned) [Compound 1-41, 1-[2-cyano-4-(trifluoromethyl)phenyl]-4-{2′-ethoxy-[2,3′-bipyridin]-5-yl}-N-[(3S,4S)*-4-hydroxy-1-methylpyrrolidin-3-yl]piperidine-4-carboxamide], less than 10 nM. With `COc1ccccc1-c1ncc(C2(C(=O)N[C@H]3CCN(C)C3)CCN(c3ccc(C(F)(F)F)nc3C#N)CC2)cc1F` [Compound 1-128, 1-[2-cyano-6-(trifluoromethyl)pyridin-3-yl]-4-[5-fluoro-6-(2-methoxyphenyl)pyridin-3-yl]-N-[(3S)-1-methylpyrrolidin-3-yl]piperidine-4-carboxamide] the figure was less than 10 nM. As for `CCCc1ccccc1-c1ccc(C2(C(=O)N[C@@H]3CCN(C)C3)CCN(c3ccc(C(F)(F)F)cc3C#N)CC2)cn1` [Compound 1-117, 1-[2-cyano-4-(trifluoromethyl)phenyl]-N-[(3R)-1-methylpyrrolidin-3-yl]-4-[6-(2-propylphenyl)pyridin-3-yl]piperidine-4-carboxamide], the figure is less than 10 nM; as for `CNCCNC(=O)C1(c2cnc(-c3ccccc3OC)c(F)c2)CCN(c2ccc(C(F)(F)F)cc2C#N)CC1` [Compound 1-196, 1-[2-cyano-4-(trifluoromethyl)phenyl]-4-[5-fluoro-6-(2-methoxyphenyl)pyridin-3-yl]-N-[2-(methylamino)ethyl]piperidine-4-carboxamide], less than 10 nM. On to `COc1ncccc1-c1ncc(C2(C(=O)N[C@H]3CCN(C)C3)CCN(c3ccc(C(F)(F)F)cc3C#N)CC2)cc1F` [Compound 1-132, 1-[2-cyano-4-(trifluoromethyl)phenyl]-4-{3-fluoro-2′-methoxy-[2,3′-bipyridin]-5-yl}-N-[(3S)-1-methylpyrrolidin-3-yl]piperidine-4-carboxamide], for which the Ki is less than 10 nM. As for `CN(C)[C@@H](CO)CNC(=O)C1(c2ccc(-c3cccn3C)nc2)CCN(c2ccc(C(F)(F)F)cc2C#N)CC1` [Compound 1-275, 1-[2-cyano-4-(trifluoromethyl)phenyl]-N-[(2R)-2-(dimethylamino)-3-hydroxypropyl]-4-[6-(1-methyl-1H-pyrrol-2-yl)pyridin-3-yl]piperidine-4-carboxamide], the figure is less than 10 nM; as for `Cc1cscc1-c1ccc(C2(C(=O)N[C@@H]3CCN(C)C3)CCN(c3ccc(C(F)(F)F)cc3C#N)CC2)cn1` [Compound 1-138, 1-[2-cyano-4-(trifluoromethyl)phenyl]-N-[(3R)-1-methylpyrrolidin-3-yl]-4-[6-(4-methylthiophen-3-yl)pyridin-3-yl]piperidine-4-carboxamide], less than 10 nM; as for `CNC[C@H](C)NC(=O)C1(c2ccc(-c3cccn3C)nc2)CCN(c2ccc(C(F)(F)F)cc2C#N)CC1` [Compound 1-316, 1-[2-cyano-4-(trifluoromethyl)phenyl]-4-[6-(1-methyl-1H-pyrrol-2-yl)pyridin-3-yl]-N-[(2S)-1-(methylamino)propan-2-yl]piperidine-4-carboxamide], less than 10 nM.

As for `COc1ccccc1-c1ccc(C2(C(=O)N[C@H]3C[C@H]4CC[C@@H]3N4C)CCN(c3ccc(C(F)(F)F)cc3C#N)CC2)cn1` (racemic) [Compound 1-252, rac-1-[2-cyano-4-(trifluoromethyl)phenyl]-4-[6-(2-methoxyphenyl)pyridin-3-yl]-N-[(1S,2S,4R)-7-methyl-7-azabicyclo[2.2.1]heptan-2-yl]piperidine-4-carboxamide], the Ki lay in the range of 10 to 100 nM. As for `COc1ccccc1-c1ccc(C2(C(=O)NC[C@H]3CN(C)CCO3)CCN(c3ccc(C(F)(F)F)cc3C#N)CC2)cn1` [Compound 1-327, 1-[2-cyano-4-(trifluoromethyl)phenyl]-4-[6-(2-methoxyphenyl)pyridin-3-yl]-N-{[(2S)-4-methylmorpholin-2-yl]methyl}piperidine-4-carboxamide], the figure is 10 to 100 nM; as for `CCOc1ncccc1-c1ccc(C2(NC(=O)[C@@H]3CCN(C)C3)CCN(c3ccc(C(F)(F)F)cc3C#N)CC2)cn1` [Compound 2-7, (3R)—N-{1-[2-cyano-4-(trifluoromethyl)phenyl]-4-{2′-ethoxy-[2,3′-bipyridin]-5-yl}piperidin-4-yl}-1-methylpyrrolidine-3-carboxamidev], less than 10 nM; as for `COc1ncc(F)cc1-c1ccc(C2(C(=O)N[C@H]3CCN(C)C3)CCN(c3ccc(C(F)(F)F)cc3Cl)CC2)cn1` [Compound 1-154, 1-[2-chloro-4-(trifluoromethyl)phenyl]-4-{5′-fluoro-2′-methoxy-[2,3′-bipyridin]-5-yl}-N-[(3S)-1-methylpyrrolidin-3-yl]piperidine-4-carboxamide], less than 10 nM. As for `COc1ccccc1-c1ncc(C2(C(=O)N[C@H]3CCN(C)C3)CCN(c3ccc(C(F)(F)F)cc3C#N)CC2)cc1F` [Compound 1-127, 1-[2-cyano-4-(trifluoromethyl)phenyl]-4-[5-fluoro-6-(2-methoxyphenyl)pyridin-3-yl]-N-[(3S)-1-methylpyrrolidin-3-yl]piperidine-4-carboxamide], the figure is less than 10 nM; as for “(3R)-1-methylpyrrolidin-3-yl N-{1-[2-cyano-4-(trifluoromethyl)phenyl]-4-{2′-ethoxy-[2,3′-bipyridin]-5-yl}piperidin-4-yl}carbamate [Compound 2-22]”, less than 10 nM. As for `CCOc1ncccc1-c1ncc(C2(C(=O)NCCN(C)C)CCN(c3ccc(C(F)(F)F)cc3C#N)CC2)cc1F` [Compound 1-308, 1-[2-cyano-4-(trifluoromethyl)phenyl]-N-[2-(dimethylamino)ethyl]-4-{2′-ethoxy-3-fluoro-[2,3′-bipyridin]-5-yl}piperidine-4-carboxamide], the figure is less than 10 nM; as for `CCOc1ncccc1-c1ccc(C2(C(=O)NC[C@@H](C)N(C)C)CCN(c3ccc(C(F)(F)F)cc3C#N)CC2)cn1` [Compound 1-333, 1-[2-cyano-4-(trifluoromethyl)phenyl]-N-[(2R)-2-(dimethylamino)propyl]-4-{2′-ethoxy-[2,3′-bipyridin]-5-yl}piperidine-4-carboxamide], less than 10 nM. For `CCOc1ncccc1-c1ccc(C2(NC(=O)C3CN(C)C3)CCN(c3ccc(Cl)cc3C#N)CC2)cn1` [Compound 2-37, N-[1-(4-chloro-2-cyanophenyl)-4-{2′-ethoxy-[2,3′-bipyridin]-5-yl}piperidin-4-yl]-1-methylazetidine-3-carboxamide], the Ki is less than 10 nM. As for `COc1ccc(F)cc1-c1ccc(C2(C(=O)N[C@H]3CCN(C)C3)CCN(c3ccc(C(F)(F)F)cc3C#N)CC2)cn1` [Compound 1-102, 1-[2-cyano-4-(trifluoromethyl)phenyl]-4-[6-(5-fluoro-2-methoxyphenyl)pyridin-3-yl]-N-[(3S)-1-methylpyrrolidin-3-yl]piperidine-4-carboxamide], the figure is less than 10 nM; as for `CCOc1ncccc1-c1ccc(C2(C(=O)N[C@@H]3CCN(C)C3)CCN(c3ccc(C(F)(F)F)cc3C#N)CC2)cc1F` [Compound 1-75, 1-[2-cyano-4-(trifluoromethyl)phenyl]-4-[4-(2-ethoxypyridin-3-yl)-3-fluorophenyl]-N-[(3R)-1-methylpyrrolidin-3-yl]piperidine-4-carboxamide], less than 10 nM; as for `CN1CC[C@](C)(NC(=O)C2(c3ccc(-c4cccn4C)nc3)CCN(c3ccc(C(F)(F)F)cc3C#N)CC2)C1` [Compound 1-253, 1-[2-cyano-4-(trifluoromethyl)phenyl]-N-[(3S)-1,3-dimethylpyrrolidin-3-yl]-4-[6-(1-methyl-1H-pyrrol-2-yl)pyridin-3-yl]piperidine-4-carboxamide], less than 10 nM.

For the compound `CCOc1ncccc1-c1ccc(C2(NC(=O)O[C@H]3CCN(C)C3)CCN(c3ccc(C(F)(F)F)cc3C#N)CC2)cc1` [Compound 2-13, (3S)-1-methylpyrrolidin-3-yl N-{1-[2-cyano-4-(trifluoromethyl)phenyl]-4-[4-(2-ethoxypyridin-3-yl)phenyl]piperidin-4-yl}carbamate], the Ki lay in the range of 10 to 100 nM. With `CCOc1ccccc1-c1ncc(C2(C(=O)N[C@H]3CCN(C)C3)CCN(c3ccc(C(F)(F)F)cc3Cl)CC2)cc1F` [Compound 1-202, 1-[2-chloro-4-(trifluoromethyl)phenyl]-4-[6-(2-ethoxyphenyl)-5-fluoropyridin-3-yl]-N-[(3S)-1-methylpyrrolidin-3-yl]piperidine-4-carboxamide] the figure was less than 10 nM.

`CCOc1ncccc1-c1ccc(C2(NC(=O)CCNC)CCN(c3ccc(C(F)(F)F)cc3C#N)CC2)cn1` [Compound 2-5, N-{1-[2-cyano-4-(trifluoromethyl)phenyl]-4-{2′-ethoxy-[2,3′-bipyridin]-5-yl}piperidin-4-yl}-3-(methylamino)propanamide]: the Ki was less than 10 nM. With `CN(C)CC1(NC(=O)C2(c3ccc(-c4cccn4C)nc3)CCN(c3ccc(C(F)(F)F)cc3C#N)CC2)COC1` [Compound 1-262, 1-[2-cyano-4-(trifluoromethyl)phenyl]-N-{3-[(dimethylamino)methyl]oxetan-3-yl}-4-[6-(1-methyl-1H-pyrrol-2-yl)pyridin-3-yl]piperidine-4-carboxamide] the figure was less than 10 nM.
